Patent publication US20230365619A1, “CRYSTALLINE SODIUM CHOLESTERYL SULFATE” (Durect Corporation, priority 2020, published 2023)

Assay: Dynamic Vapor Sorption/Desorption (DVS)
Assay type: physicochemical
Settings: FIG. 4

CC(C)CCC[C@@H](C)[C@H]1CC[C@H]2[C@@H]3CC=C4C[C@@H](OS(=O)(=O)[O-])CC[C@]4(C)[C@H]3CC[C@]12C.[Na+] [Form F, sodium cholesteryl sulfate]
weight change upon desorption (DVS) (desorption 95% to 5% relative humidity): 20.8% | weight gain on sorption (DVS) (ramping from 5% to 95% relative humidity, 10% RH increments, nitrogen purge): 23.8% | DVS sorption profile (onset of weight gain) (ramping from 5% to 95% relative humidity): little weight gain until 55% relative humidity
